Experimental data taken from patent US6562317B2, “Radioactive embolizing compositions” (Micro Therapeutics, Inc., priority 1997, dated 2003).

Assay: Cure of prepolymer injected into 0.1 N NaHCO3 aqueous solution simulating a blood environment
Type: physicochemical
Details: cyanoacrylate without iridium, same procedure
Experimental: About 0.2 cc of this composition was taken up in a 1 cc syringe through a 21 gage needle and injected into about 150 cc of a 0.1 N NaHCO3 aqueous solution to simulate a blood environment and cure the prepolymer. Upon injection, three small black/gray droplets were formed which immediately fell to the bottom of the container. It took about 15 minutes for the cyanoacrylate to fully cure and to be tack free.

## C=C(C#N)C(=O)OCCCC [cyanoacrylate alone, n-butyl cyanoacrylate]
  cure time compared with the iridium composition: cured in approximately the same time
